According to US20240228482A1, “COMPOUNDS, COMPOSITIONS AND METHODS OF TREATING CANCER” (HOTSPOT THERAPEUTICS, INC., priority 2021, published 2024):
pIC50: −log10 of the molar value.

These molecules were tested against T1, CBL-B (Homo sapiens, UniProt Q13191) (assay: CBL-B TR-FRET IC50 screening (E1/E2 ubiquitination, Biotin-Ubiquitin, Anti GST-Tb donor / Streptavidin-d2 acceptor)). Conditions: CBL-B 10 nM final; 11-point titration from 100 uM; binned A-F; read-out: CBL-B TR-FRET activity IC50.
T1 construct: GST
T1 sequence (Q13191 whole entry): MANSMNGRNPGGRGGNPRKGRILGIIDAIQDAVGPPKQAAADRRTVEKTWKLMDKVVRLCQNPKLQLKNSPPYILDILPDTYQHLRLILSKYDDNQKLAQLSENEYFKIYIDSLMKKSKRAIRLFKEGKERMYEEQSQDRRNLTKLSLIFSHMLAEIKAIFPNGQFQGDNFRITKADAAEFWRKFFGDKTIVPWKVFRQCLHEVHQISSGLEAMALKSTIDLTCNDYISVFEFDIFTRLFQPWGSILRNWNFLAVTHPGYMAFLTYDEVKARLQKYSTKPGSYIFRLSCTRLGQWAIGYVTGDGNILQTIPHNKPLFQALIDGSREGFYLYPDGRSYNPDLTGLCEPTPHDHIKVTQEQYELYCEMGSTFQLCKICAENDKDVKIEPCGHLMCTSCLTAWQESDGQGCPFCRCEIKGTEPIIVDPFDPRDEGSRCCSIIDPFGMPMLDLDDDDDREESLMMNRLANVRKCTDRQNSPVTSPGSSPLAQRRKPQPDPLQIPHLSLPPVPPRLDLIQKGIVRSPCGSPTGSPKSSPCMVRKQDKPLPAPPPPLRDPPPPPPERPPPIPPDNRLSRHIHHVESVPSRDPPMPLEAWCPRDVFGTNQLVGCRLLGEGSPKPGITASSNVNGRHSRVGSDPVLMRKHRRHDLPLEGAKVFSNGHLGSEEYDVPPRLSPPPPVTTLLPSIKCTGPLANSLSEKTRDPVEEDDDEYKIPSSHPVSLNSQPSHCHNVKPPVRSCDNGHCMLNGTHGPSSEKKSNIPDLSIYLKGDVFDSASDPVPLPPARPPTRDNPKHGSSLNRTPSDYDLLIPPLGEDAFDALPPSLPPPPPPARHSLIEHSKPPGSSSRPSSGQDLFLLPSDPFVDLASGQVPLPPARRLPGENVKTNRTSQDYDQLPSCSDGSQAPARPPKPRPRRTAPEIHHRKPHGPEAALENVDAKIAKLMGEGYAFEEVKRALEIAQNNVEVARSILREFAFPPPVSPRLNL
Type: biochemical

SMILES | pIC50
Cn1cnnc1[C@]1(c2cccc(-n3cc4c(C(F)(F)F)cc(CN5CCC(F)CC5)cn4c3=O)c2)C[C@H](C)C1 (single isomer, unassigned) [Compound 237] | > 7.00
C[C@H](c1cc(C(F)(F)F)c2cn(-c3cccc(C4([C@H](F)c5nncn5C)COC4)c3)c(=O)n2c1)N1CCC2(CC2)C1 [Compound 57] | > 7.00
Cn1cnnc1CC1(c2cccc(-n3cc4c(C(F)(F)F)cc(C(=O)O)cn4c3=O)c2)COC1 [Compound 20] | 5.00 to 5.52
CN(CCO)Cc1cc(C(F)(F)F)c2cn(-c3cccc(C4(Cc5nncn5C)COC4)c3)c(=O)n2c1 [Compound 76] | 6.52 to 7.00
Cc1c[nH]nc1CC1(c2cccc(-n3cc4c(C(F)(F)F)cc(CN5CCC[C@H](C)C5)cn4c3=O)c2)COC1 [Compound 207] | > 7.00
C[C@@H]1CN(Cc2cc(C(F)(F)F)c3cn(-c4cccc(C5(c6nncn6C)CC6(CC6)C5)c4)c(=O)n3c2)CCO1 [Compound 116] | > 7.00
Cn1cnnc1[C@]1(c2cccc(-n3cc4c(C(F)(F)F)cc(CN5CC[C@H](F)C5)cn4c3=O)c2)C[C@H](C)C1 (single isomer, unassigned) [Compound 226] | > 7.00
Cn1cnnc1[C@@H](c1cccc(-n2cc3c(C(F)(F)F)cc(CN4CCC(=O)N4)cn3c2=O)c1)C1CCC1 [Compound 258] | > 7.00
Cn1cnnc1CC1(c2cccc(-n3cc4c(C(F)(F)F)cc(CN5CCC[C@H](O)C5)cn4c3=O)c2)COC1 [Compound 125] | > 7.00
Cn1cnnc1CC1(c2cc(Br)cc(-n3cc4c(C(F)(F)F)cccn4c3=O)c2)COC1 [Compound 180] | 5.00 to 5.52
Cn1cnnc1[C@]1(c2cccc(-n3cc4c(C(F)(F)F)cc(C#N)cn4c3=O)c2)C[C@H](C)C1 [Compound 212] | 6.52 to 7.00
C[C@H](Cc1nnc[nH]1)c1cccc(-n2cc3c(C(F)(F)F)cccn3c2=O)c1 [Compound 46] | 5.52 to 6.00
C[C@@H](c1cc(C(F)(F)F)c2cn(-c3cccc(C4([C@@H](F)c5nncn5C)COC4)c3)c(=O)n2c1)N1CCC2(CC2)C1 [Compound 56] | > 7.00
Cn1cnnc1CC1(c2cccc(-n3cc4c(C(F)(F)F)cc(CO)cn4c3=O)c2)COC1 (single isomer, unassigned) [Compound 81] | 6.00 to 6.52
C[C@H]1CN(Cc2cc(C(F)(F)F)c3cn(-c4cccc([C@]5(Cc6nncn6C)C[C@H](C#N)C5)c4)c(=O)n3c2)CCC1(F)F (single isomer, unassigned) [Compound 205] | > 7.00
Cn1cnnc1[C@H](F)C1(c2cccc(-n3cc4c(C(F)(F)F)cc(CN5CCC(F)CC5)cn4c3=O)c2)COC1 (single isomer, unassigned) [Compound 45] | > 7.00
CN(C)C1CCC(c2cc(C(F)(F)F)c3cn(-c4cccc(C5(Cc6nncn6C)COC5)c4)c(=O)n3c2)CC1 (centres unmarked) [Compound 87] | 6.52 to 7.00
C[C@H]1CCCN(Cc2cc(C(F)(F)F)c3cn(-c4cccc([C@@H](c5nncn5C)C5COC5)c4)c(=O)n3c2)C1 (single isomer, unassigned) [Compound 134] | 6.00 to 6.52
C[C@H]1CCN(Cc2cc(C(F)(F)F)c3cn(-c4cccc([C@H](c5nncn5C)C5CCC5)c4)c(=O)n3c2)C1 [Compound 247] | > 7.00
Cn1cnnc1CC1(c2cccc(-n3cc4c(C(F)(F)F)cc(C5CCN(CC(F)(F)F)CC5)cn4c3=O)c2)COC1 [Compound 178] | 6.00 to 6.52
CC1CC(c2cccc(-n3cc4c(C(F)(F)F)cc(CN5CCO[C@H](C)C5)cn4c3=O)c2)(c2nncn2C)C1 (single isomer, unassigned) [Compound 190] | > 7.00
C[C@H](c1cc(C(F)(F)F)c2cn(-c3cccc(C4(Cc5nncn5C)COC4)c3)c(=O)n2c1)N1CC2CC2C1 (some centres unmarked) [Compound 37] | > 7.00
Cc1c[nH]nc1[C@@H](c1cccc(-n2cc3c(C(F)(F)F)cc(CN4CCO[C@H](C)C4)cn3c2=O)c1)C1COC1 [Compound 268] | < 5.00
CN1CC2CCC(C1)N2c1cc(C(F)(F)F)c2cn(-c3cccc(C4(Cc5nncn5C)COC4)c3)c(=O)n2c1 [Compound 15] | 6.52 to 7.00
Cn1cnnc1[C@]1(c2cccc(-n3cc4c(C(F)(F)F)cc(CN5CCC(C)(F)CC5)cn4c3=O)c2)C[C@@H](C)C1 (single isomer, unassigned) [Compound 217] | > 7.00

Second part, the molecule after the results:

pIC50 | SMILES
5.52 to 6.00 | C[C@@H]1CCCN1Cc1cc(C(F)(F)F)c2cn(-c3cccc([C@@H](c4nncn4C)C4CCC4)c3)c(=O)n2c1 [Compound 381_P1]
< 5.00 | Cc1c[nH]nc1[C@H](c1cccc(-n2cc3c(C(F)(F)F)cc(CN4CCC[C@H](C)C4)cn3c2=O)c1)C1COC1 [Compound 280]
> 7.00 | CO[C@H]1C[C@@](c2cccc(-n3cc4c(C(F)(F)F)cc(CN5CCC[C@H](C)C5)cn4c3=O)c2)(c2nncn2C)C1 [Compound 318]
> 7.00 | C[C@H]1CCCN(Cc2cc(C(F)(F)F)c3cn(-c4cc(C#N)cc([C@@H](c5nncn5C)C5CCC5)c4)c(=O)n3c2)C1 (single isomer, unassigned) [Compound 288]
< 5.00 | C[C@@H]1CN(Cc2cc(C(F)(F)F)c3cn(-c4cccc(N(c5nncn5C)C5CCC5)c4)c(=O)n3c2)CCO1 [Compound 314]
6.52 to 7.00 | Cn1cnnc1[C@]1(c2cccc(-n3cc4c(C(F)(F)F)cc(CN5CCc6ncsc6C5)cn4c3=O)c2)C[C@@H](C)C1 (single isomer, unassigned) [Compound 309]
> 7.00 | Cn1cnnc1[C@@H](c1cccc(-n2cc3c(C(F)(F)F)cc(CN4CCn5cnnc5C4)cn3c2=O)c1)C1CCC1 [Compound 316]
> 7.00 | Cn1cnnc1[C@@H](c1cccc(-n2cc3c(C(F)(F)F)cc(CN4CC(Oc5ccc(Cl)cc5)C4)cn3c2=O)c1)C1CCC1 [Compound 338]
> 7.00 | CN(Cc1cc(C(F)(F)F)c2cn(-c3cccc([C@H](c4nncn4C)C4CCC4)c3)c(=O)n2c1)CC1COC1 [Compound 347]
< 5.00 | C[C@H]1CCCN(Cc2cc(C(F)(F)F)c3cn(-c4cccc([C@H](CC5CC5)c5nncn5C)c4)c(=O)n3c2)C1 [Compound 332_P1]
> 7.00 | [2H]C([2H])([2H])n1cnnc1CC1(c2cccc(-n3cc4c(C(F)(F)F)cc([C@H](C)N5CCO[C@H](C)C5)cn4c3=O)c2)COC1 [Compound 287_P1]

Same assay, conditions: second part of Table 2 (head 'Patent Cmpd No / Updated Activity'); same CBL-B TR-FRET IC50 bins A-F; read-out: Updated Activity

pIC50 | SMILES
> 7.00 | CN1CCN(Cc2cc(C(F)(F)F)c3cn(-c4cccc([C@H](c5nncn5C)C5CCC5)c4)c(=O)n3c2)C1=O [Compound 483]
< 5.00 | Cc1sc(CO)nc1[C@H](c1cccc(-n2cc3c(C(F)(F)F)cc(CN4CCC[C@H](C)C4)cn3c2=O)c1)C1CCC1 (single isomer, unassigned) [Compound 392]
> 7.00 | COC(=O)N1CCC[C@H](c2cc(C(F)(F)F)c3cn(-c4cccc([C@H](c5nncn5C)C5CCC5)c4)c(=O)n3c2)C1 (single isomer, unassigned) [Compound 393]
6.52 to 7.00 | C[C@H]1CCCN(Cc2cc(C(F)(F)F)c3cn(-c4cccc([C@@H](c5nncn5C)C5CC5)c4)c(=O)n3c2)C1 [Compound 472_P1]
6.52 to 7.00 | C[C@H]1CCCN(Cc2cc(C(F)(F)F)c3cn(-c4cccc([C@H](c5nncn5C)N5CC(O)C5)c4)c(=O)n3c2)C1 (single isomer, unassigned) [Compound 406]
6.00 to 6.52 | CO[C@H]1C[C@@H]([C@@H](c2cccc(-n3cc4c(C(F)(F)F)cc(CN5CCC[C@H](C)C5)cn4c3=O)c2)c2nncn2C)C1 (single isomer, unassigned) [Compound 551]
> 7.00 | Cn1cnnc1[C@@H](c1cccc(-n2cc3c(C(F)(F)F)cc(CN4CCC5(CC4)CC5)cn3c2=O)c1)C1CCC1 [Compound 503]
> 7.00 | C[C@H]1CCCN(Cc2cc(C(F)(F)F)c3cn(-c4cccc([C@H](c5nncn5C)C5(O)CCC5)c4)c(=O)n3c2)C1 (single isomer, unassigned) [Compound 474]
< 5.00 | CCn1cnnc1[C@@H](c1cccc(-n2cc3c(C(F)(F)F)cc(CN4CCC[C@H](C)C4)cn3c2=O)c1)C1CCC1 (single isomer, unassigned) [Compound 423]
> 7.00 | Cn1cnnc1[C@@H](c1cc(F)cc(-n2cc3c(C(F)(F)F)cc(CN4CCC(C)(F)CC4)cn3c2=O)c1)C1CCC1 (single isomer, unassigned) [Compound 534]
> 7.00 | CC(=O)N1CC[C@H](c2cc(C(F)(F)F)c3cn(-c4cccc([C@H](c5nncn5C)C5CCC5)c4)c(=O)n3c2)C1 (single isomer, unassigned) [Compound 421]
< 5.00 | Cc1cnnn1[C@H](c1cccc(-n2cc3c(C(F)(F)F)cc(CN4CCC[C@H](C)C4)cn3c2=O)c1)C1CCC1 (single isomer, unassigned) [Compound 582]
< 5.00 | COC[C@H]1C[C@@H]([C@@H](c2cccc(-n3cc4c(C(F)(F)F)cc(CN5CCC[C@H](C)C5)cn4c3=O)c2)c2nncn2C)C1 (single isomer, unassigned) [Compound 492]
> 7.00 | Cn1cnnc1[C@@H](c1cccc(-n2cc3c(C(F)(F)F)cc(CN4CCC5(CC4)COC5)cn3c2=O)c1)C1CCC1 [Compound 525]
> 7.00 | C[C@H](c1cc(C(F)(F)F)c2cn(-c3cccc([C@H](c4nncn4C)C4CCC4)c3)c(=O)n2c1)N1CC[C@H](C#N)C1 (single isomer, unassigned) [Compound 573_P1]
< 5.00 | Cn1cnnc1[C@H](c1cc(C#N)cc(-n2cc3c(C(F)(F)F)cc(CN4CCC(C)(F)CC4)cn3c2=O)c1)C1CCC1 (single isomer, unassigned) [Compound 516]
< 5.00 | C[C@H]1CCCN(Cc2cc(C(F)(F)F)c3cn(-c4cccc(Cc5cccnn5)c4)c(=O)n3c2)C1 [Compound 431]
< 5.00 | Cn1cnnc1[C@@H](c1cc(-c2cnn[nH]2)cc(-n2cc3c(C(F)(F)F)cccn3c2=O)c1)C1CCC1 [Compound 536]
< 5.00 | Cn1cnnc1[C@H](c1cc(-c2ccsn2)cc(-n2cc3c(C(F)(F)F)cccn3c2=O)c1)C1CCC1 (single isomer, unassigned) [Compound 460]
< 5.00 | C[C@H]1CCCN(Cc2cc(C(F)(F)F)c3cn(-c4cccc([C@H](c5nncn5C)[C@H]5C[C@@](C)(O)C5)c4)c(=O)n3c2)C1 (single isomer, unassigned) [Compound 574]
